The values below come from PubChem BioAssay (NCI).

Common to all, as to experiment: DTP human tumour cell line panel, 48 h
In assay [1] the test system is CCRF-CEM leukemia.
For assay [2], the system named is COLO 205 colon.
In assay [3] the test system is DU-145 prostate.
The test system of assay [4] is EKVX NSCLC.
Assay [5] relates to HL-60(TB) leukemia.
Assay [6] concerns HS 578T breast.
Assay [7] has as its system IGROV1 ovarian.
For assay [8], the system named is KM12 colon.
Assay [9] has as its system MALME-3M melanoma.
Assay [10] concerns MDA-N.
Assay [11] concerns NCI-H522 lung.
Assay [12] relates to OVCAR-5 ovarian.
The test system of assay [13] is OVCAR-8 ovarian.
Assay [14] deals with SF-295 CNS.
Assay [15] has as its system SK-MEL-5 melanoma.
The test system of assay [16] is SR leukemia.
Assay [17] deals with HCC-2998 colon.
The subject of assay [18] is MDA-MB-231 breast.
The test system of assay [19] is U251 CNS.
For assay [20], the system named is T-47D breast.

Molecules are shown by their SMILES.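 Dose response: 5 concentrations. Exposure: 48 h. Format: 96-well plates. Endpoint: linear interpolation; highest concentration if not reached. TGI: total growth inhibition.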

As a reminder, the TGI is the concentration giving total growth inhibition. For the molecule `CCOC(=O)/C(=C\NC(C)(C)C)c1nc2ccccc2o1`, the TGI in assay [1] was 54.6 µM; in assay [2], 55.3 µM; in assay [3], over 100 µM; in assay [4] it was over 100 µM; in assay [5], 19.1 µM; in assay [6] it was 63.9 µM. Besides, the concentration for total growth inhibition (TGI) in assay [7] was over 100 µM; in assay [8], over 100 µM; in assay [9], 85.6 µM; in [10], over 100 µM; in assay [11] it was over 100 µM; in assay [12] it was over 100 µM. The TGI was over 100 µM in assay [13], over 100 µM in assay [14], 26 µM in assay [15] and 48.6 µM in [16].
In the case of `Cc1ccc(S(=O)(=O)n2cnc(CC(NC(=O)C3CCC(=O)N3C(=O)OCc3ccccc3)C(=O)N3CCCC3C(=O)NN)c2)cc1` (configuration not stated), the TGI in assay [2], in [4], in assay [17], in [5], in assay [6] and in [7] was over 100 µM in each case. In addition, the TGI in [8], in assay [9], in assay [18], in assay [10], in assay [12] and in [13] was over 100 µM each time. Moreover, the total growth inhibition concentration (TGI) in assay [15], in [16] and in assay [19] was over 100 µM throughout.
Regarding `CC(CCC(=O)O)[C@H]1CCC2[C@H]3C(CC(=O)[C@@]21C)[C@@]1(C)CCC(O)C[C@H]1C[C@@H]3O` (some centres not stated), the total growth inhibition concentration (TGI) in assay [1], in [2], in assay [3], in assay [4], in assay [17] and in assay [5] was over 100 µM in each case. In addition, the TGI in assay [7], in [8], in assay [9], in assay [18], in assay [10] and in [11] was over 100 µM throughout. The TGI in assay [12], in assay [13], in assay [16], in [20] and in assay [19] was over 100 µM in each case.
For the molecule `O=C(CCCN1CC=C(n2c(=O)[nH]c3ccccc32)CC1)c1cccs1`, the TGI in [1], in assay [2], in assay [3], in [4], in assay [17] and in [5] was over 100 µM each time. For the same molecule, the TGI in [7], in [8], in assay [9], in [18], in assay [10] and in [11] was over 100 µM throughout. Further, the total growth inhibition concentration (TGI) in assay [12], in [13], in assay [14], in [15], in assay [16] and in [20] was over 100 µM each time. This molecule also had a TGI in [19] of over 100 µM.
As for `O=c1[nH]n(Cc2ccccc2CCl)c2ccc([N+](=O)[O-])cc12`, the concentration for total growth inhibition (TGI) was over 100 µM in assay [1]; 62.5 µM in assay [2]; over 100 µM in assay [3]; over 100 µM in assay [4]; 42.4 µM in [17]; 99.6 µM in [5]. Moreover, the total growth inhibition concentration (TGI) in [6], in assay [7], in assay [8], in [9], in assay [18] and in assay [10] was over 100 µM throughout. Moreover, the concentration for total growth inhibition (TGI) in assay [11] was 63.2 µM; in assay [12], over 100 µM; in assay [13], over 100 µM; in assay [14], over 100 µM; in [15], 30.4 µM; in [16] it was over 100 µM. This molecule had a TGI in assay [19] of over 100 µM.
Take `C=C1CC(COc2ccc3ccc(=O)oc3c2)(c2ccccc2)OC1=O` (configuration not stated): the concentration for total growth inhibition (TGI) in assay [1] was determined as 2.7 µM; in assay [2] it was 1.79 µM; in [3], 7.21 µM; in assay [4] it was 22 µM; in assay [17] it was 2.48 µM; in assay [5], 0.708 µM. In addition, the TGI is over 23.7 µM in assay [6]; 3.36 µM in assay [7]; 13.5 µM in [8]; 6.77 µM in assay [9]; 6.88 µM in assay [18]; 3.85 µM in [10]. For the same molecule, the total growth inhibition concentration (TGI) in [11] is 2.29 µM; in assay [12], 13 µM; in assay [13] it was 7.9 µM; in assay [14] it was 20.7 µM; in assay [15] it was 2.85 µM; in assay [16] it was over 31 µM. In assay [19], this molecule registered a TGI of 22.2 µM.
Consider `COc1ccc(NC(C)=O)cc1N1C(=O)/C(=C\c2cc(OC)c(OC)c(OC)c2)S(=O)(=O)C1c1ccccc1` (configuration not stated), for which the total growth inhibition concentration (TGI) was over 100 µM in assay [1]; over 100 µM in [2]; over 100 µM in [3]; over 100 µM in [4]; over 100 µM in [17]; 43 µM in assay [5]. Moreover, the concentration for total growth inhibition (TGI) in [7], in assay [8], in assay [9], in assay [18], in assay [10] and in assay [11] was over 100 µM each time. For the same molecule, the concentration for total growth inhibition (TGI) in assay [12], in [13], in assay [14], in assay [15], in [16] and in assay [20] was over 100 µM each time. Besides, the TGI in assay [19] is over 100 µM.
In the case of `CO[C@H](c1ccccc1)[C@H](O)[C@](O)(c1ccccc1)P(=O)(OC)OC`, the TGI in assay [1], in assay [2], in [3], in [4], in assay [17] and in assay [5] was over 100 µM in each case. Further, the TGI in [7], in assay [8], in [9], in [18], in [10] and in assay [11] was over 100 µM throughout. For the same molecule, the concentration for total growth inhibition (TGI) in assay [12], in assay [13], in assay [14], in [15], in [16] and in assay [20] was over 100 µM each time. This molecule also displayed a TGI in [19] of over 100 µM.
Consider `COc1ccc(C(CC(=O)c2ccccc2)C(=O)c2ccc3c(c2)OCO3)cc1` (configuration not stated), for which the TGI in assay [1], in assay [2], in assay [3], in [4], in assay [17] and in [5] was over 100 µM throughout. For the same molecule, the concentration for total growth inhibition (TGI) in assay [7], in assay [8], in assay [9], in [18], in assay [10] and in assay [13] was over 100 µM each time. In addition, the concentration for total growth inhibition (TGI) in assay [14], in [15], in assay [16], in [20] and in assay [19] was over 100 µM in each case.
`COc1c(O)cc2c(c1O)C1O[C@H](CO)C(O)[C@H](O)[C@H]1OC2=O` (some centres not stated): the total growth inhibition concentration (TGI) in assay [1], in assay [2], in assay [3], in assay [17], in assay [5] and in assay [7] was over 100 µM in each case. Also, the TGI in assay [8], in [9], in [18], in assay [10], in assay [11] and in assay [12] was over 100 µM each time. In addition, the TGI in assay [13], in assay [14], in assay [15], in assay [16], in [20] and in assay [19] was over 100 µM each time.
`CCCCc1ccc(N2C(=O)c3cccnc3S2(=O)=O)cc1`: the total growth inhibition concentration (TGI) in assay [1], in assay [2], in [3], in assay [4], in [17] and in assay [5] was over 100 µM in each case. For the same molecule, the TGI in assay [7], in [8], in assay [9], in assay [18], in assay [10] and in assay [11] was over 100 µM each time. Also, the concentration for total growth inhibition (TGI) in [12], in [13], in assay [14], in assay [16], in assay [20] and in assay [19] was over 100 µM throughout.
Regarding `C/C(=N/NC(=S)N1CCCC1)c1cccc(/C(C)=N\NC(=S)N2CCCC2)n1`, the TGI in [1] was 3.01 µM; in assay [2], over 100 µM; in assay [3], 38.5 µM; in assay [4], 3.49 µM; in assay [17] it was 2.86 µM; in assay [5], 4.88 µM. The TGI in assay [6] came out at 25.2 µM; in [7], 37.1 µM; in assay [8] it was 4.46 µM; in assay [9], 4.89 µM; in assay [18], 3.23 µM; in assay [10] it was 3.89 µM. In addition, the total growth inhibition concentration (TGI) was determined as 7.77 µM in assay [11]; 6.85 µM in assay [12]; 2.35 µM in assay [13]; 2.24 µM in assay [14]; 2.69 µM in [15]; 7.58 µM in [16]. The molecule further registered a TGI in assay [19] of 4.14 µM.
As to `O=C(Nc1ccccc1)C(=O)C(C(=O)c1ccccc1)C(c1ccccc1)c1ccccc1` (configuration not stated), the concentration for total growth inhibition (TGI) in [1], in [2], in assay [3], in assay [4], in [17] and in [5] was over 10 µM in each case. Besides, the TGI in assay [7], in [9], in assay [18], in assay [10], in assay [13] and in [14] was over 10 µM each time. Moreover, the total growth inhibition concentration (TGI) in assay [15], in assay [16] and in assay [20] was over 10 µM each time.
For the molecule `CC1=[N+]([O-])C(C)(C)N(O)C1(C)C`, the TGI in [1], in assay [2], in assay [3], in assay [4], in assay [17] and in assay [5] was over 100 µM throughout. The TGI in assay [7], in [8], in [9], in assay [18], in assay [10] and in assay [11] was over 100 µM each time. Further, the total growth inhibition concentration (TGI) in assay [12], in [13], in [14], in assay [15], in [16] and in assay [20] was over 100 µM each time. Moreover, the TGI in [19] was over 100 µM.
With `C=C(Cl)C(Br)(CBr)CCC(Br)C(C)(C)Br` (configuration not stated), the concentration for total growth inhibition (TGI) in assay [1] was over 10 µM; in assay [2], over 10 µM; in assay [3], over 10 µM; in [4], over 10 µM; in assay [17], over 10 µM; in assay [5] it was over 1 µM. Besides, the TGI is 3.68 µM in [7]; over 10 µM in assay [8]; 3.38 µM in assay [18]; over 10 µM in assay [10]; over 10 µM in assay [11]; over 10 µM in [12]. The total growth inhibition concentration (TGI) in assay [13] is over 1 µM; in assay [14] it was over 10 µM; in assay [15], over 10 µM; in [16], over 1 µM; in assay [20], over 1 µM; in assay [19] it was over 10 µM.
